Reference: the supplement of paper PMC4862054
“And” between values parts separate entries of the source, which are not always exact repeats. Identical values can stand only once.

Experiments:
Settings in all cases: incubation time: 72 h
[1] = tested on: MDA-MB-453; assay: normalised viability (% of control), CellTiter-Blue; higher = more viable cells (about 100 = DMSO control)
Procedure: (§1)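 DSRT, CellTiter-Blue viability, 72 h incubation. Signal is normalised to DMSO and benzethonium chloride controls. Value is the normalised response at dose 7.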

[2] = tested on: HDQ-P1; assay: as above
Procedure: as §1

[3] = tested on: CAL-51; assay: as above
Procedure: as §1

[4] = tested on: CAL-148; assay: as above
Procedure: as §1

[5] = tested on: DU-4475; assay: as above
Procedure: as §1

[6] = tested on: CAL-85-1; assay: as above
Procedure: as §1

[7] = tested on: HCC1599; assay: drug sensitivity score (DSS), CellTiter-Blue viability (DSS (AUC-based score)); higher = stronger viability inhibition; extreme values may be limits of the assay
Procedure: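 DSRT with the CellTiter-Blue (resazurin reduction) viability readout, fluorescence 560/590 nm, 72 h incubation. Plates were normalised to DMSO and benzethonium chloride controls. DSS is computed from the area under the fitted dose-response curve (5 or 9 concentrations).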

[8] = tested on: HCC1143; assay: normalised viability (% of control), CellTiter-Blue; higher = more viable cells (about 100 = DMSO control)
Procedure: (§2)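 DSRT, CellTiter-Blue viability, 72 h incubation. Signal is normalised to DMSO and benzethonium chloride controls. Value is the normalised response at dose 3.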

[9] = tested on: BT-474; assay: as above
Procedure: as §2

[10] = tested on: HCC1599; assay: as above
Procedure: as §2

[11] = tested on: MDA-MB-453; assay: as above; remark: listed apart in the source
Procedure: as §2

[12] = tested on: HDQ-P1; assay: as above; remark: listed apart in the source
Procedure: as §2

[13] = tested on: MDA-MB-468; assay: as above
Procedure: as §2

[14] = tested on: Hs578T; assay: as above
Procedure: as §2

[15] = tested on: SK-BR-3; assay: as above
Procedure: as §2

[16] = tested on: MDA-MB-436; assay: as above
Procedure: as §2

[17] = tested on: CAL-51; assay: as above; remark: listed apart in the source
Procedure: as §2

[18] = tested on: HCC1937; assay: as above
Procedure: as §2

[19] = tested on: MFM-223; assay: as above
Procedure: as §2

[20] = tested on: CAL-148; assay: as above; remark: listed apart in the source
Procedure: as §2

[21] = tested on: BT-549; assay: as above
Procedure: as §2

[22] = tested on: CAL-120; assay: as above
Procedure: as §2

[23] = tested on: DU-4475; assay: as above; remark: listed apart in the source
Procedure: as §2

[24] = tested on: CAL-85-1; assay: as above; remark: listed apart in the source
Procedure: as §2

[25] = tested on: MDA-MB-468; assay: drug sensitivity score (DSS), CellTox Green (DSS (AUC-based score)); higher = stronger drug effect (viability inhibition or cytotoxicity); extreme values may be limits of the assay
Procedure, shortened: (§3)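 After 72 h of incubation in 384-well plates with compound at 5 concentrations (10-fold steps, 10,000-fold range set per compound), breast cancer cell lines seeded in 20 µl suspension were read first for CellTox Green fluorescence at 485/520 nm. CellTiter-Glo luminescence was measured next, after 10 min at room temperature. Normalisation on each plate used 0.1 % DMSO and a positive kill control, and the drug sensitivity score was computed from the area under the fitted dose-response curve.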

[26] = tested on: CAL-85-1; assay: as above
Procedure, shortened: as §3

[27] = tested on: MDA-MB-231; assay: normalised viability (% of control), CellTiter-Blue; higher = more viable cells (about 100 = DMSO control)
Procedure: as §2

SMILES: Cc1ccc(NC(=O)c2ccc(CN3CCN(C)CC3)cc2)cc1Nc1nccc(-c2cccnc2)n1 [Imatinib]
- normalised viability ([1]; 1000 nM): 110% and 92.5%
- normalised viability ([2]; 1000 nM): 106% and 122%
- normalised viability ([3]; 1000 nM): 106% and 102%
- normalised viability ([4]; 1000 nM): 82.7% and 100%
- normalised viability ([5]; 1000 nM): 115% and 108%
- normalised viability ([6]; 1000 nM): 92.6% and 82.5%
- drug sensitivity score [7]: 0
- normalised viability ([8]; 100 nM): 85.9% and 82.9%
- normalised viability ([9]; 100 nM): 103% and 126%
- normalised viability ([10]; 100 nM): 96.5% and 97.5%
- normalised viability ([11]; 10 nM): 104% and 94.3%
- normalised viability ([12]; 10 nM): 106% and 126%
- normalised viability ([13]; 100 nM): 99.2% and 98%
- normalised viability ([14]; 100 nM): 95.2% and 103%
- normalised viability ([15]; 100 nM): 86.2% and 75.6%
- normalised viability ([16]; 100 nM): 94.8% and 107%
- normalised viability ([17]; 10 nM): 106% and 107%
- normalised viability ([18]; 100 nM): 94.5%
- normalised viability ([19]; 100 nM): 94.8% and 92.4%
- normalised viability ([20]; 10 nM): 84.3% and 89%
- normalised viability ([21]; 100 nM): 102% and 109%
- normalised viability ([22]; 100 nM): 87.8% and 94.7%
- normalised viability ([23]; 10 nM): 106% and 95.3%
- normalised viability ([24]; 10 nM): 102% and 92.3%
- drug sensitivity score [25]: 0
- drug sensitivity score [26]: 0

SMILES: CC(C)c1c(C(=O)Nc2ccccc2)c(-c2ccccc2)c(-c2ccc(F)cc2)n1CC[C@@H](O)C[C@@H](O)CC(=O)O [Atorvastatin]
- drug sensitivity score [25]: 0
- drug sensitivity score [26]: 0

SMILES: Nc1nc(OCc2cc(Br)cs2)c2[nH]cnc2n1 [Lomeguatrib]
- drug sensitivity score [25]: 0
- drug sensitivity score [26]: 0

SMILES: Cc1cc2c(C(C)C)c(O)c(O)c(C=O)c2c(O)c1-c1c(C)cc2c(C(C)C)c(O)c(O)c(C=O)c2c1O [Gossypol]
- normalised viability ([1]; 10000 nM): 18.4%
- normalised viability ([2]; 10000 nM): 52.5%
- normalised viability ([3]; 10000 nM): 60.5%
- normalised viability ([4]; 10000 nM): 70.7%
- normalised viability ([5]; 10000 nM): 2.82%
- normalised viability ([6]; 10000 nM): 45.8%
- normalised viability ([8]; 1000 nM): 98.2%
- normalised viability ([27]; 1000 nM): 93.6%
- normalised viability ([9]; 1000 nM): 113%
- normalised viability ([10]; 1000 nM): 97%
- normalised viability ([11]; 100 nM): 110%
- normalised viability ([12]; 100 nM): 126%
- normalised viability ([13]; 1000 nM): 58.1%
- normalised viability ([14]; 1000 nM): 100%
- normalised viability ([15]; 1000 nM): 92.9%
- normalised viability ([16]; 1000 nM): 96.2%
- normalised viability ([17]; 100 nM): 96.5%
- normalised viability ([18]; 1000 nM): 91.7%
- normalised viability ([19]; 1000 nM): 96.5%
- normalised viability ([20]; 100 nM): 105%
- normalised viability ([21]; 1000 nM): 95%
- normalised viability ([22]; 1000 nM): 112%
- normalised viability ([23]; 100 nM): 99.7%
- normalised viability ([24]; 100 nM): 97.3%

SMILES: NS(=O)(=O)OC[C@@H]1C[C@@H](n2ccc3c(N[C@H]4CCc5ccccc54)ncnc32)C[C@@H]1O [Pevonedistat]
- drug sensitivity score [25]: 7.99
- drug sensitivity score [26]: 0

SMILES: CO[C@H]1C[C@@H]2CC[C@@H](C)[C@@](O)(O2)C(=O)C(=O)N2CCCC[C@H]2C(=O)O[C@H]([C@H](C)C[C@@H]2CC[C@@H](OCCO)[C@H](OC)C2)CC(=O)[C@H](C)/C=C(\C)[C@@H](O)[C@@H](OC)C(=O)[C@H](C)C[C@H](C)/C=C/C=C/C=C/1C [Everolimus]
- normalised viability ([1]; 100 nM): 29.1% and 22.3%
- normalised viability ([2]; 100 nM): 72.6% and 57.6%
- normalised viability ([3]; 100 nM): 36.9% and 38%
- normalised viability ([4]; 100 nM): 42% and 40.4%
- normalised viability ([5]; 100 nM): 49.9% and 56%
- normalised viability ([6]; 100 nM): 61.3% and 49.3%
- normalised viability ([27]; 10 nM): 92.7% and 69.3%
- normalised viability ([9]; 10 nM): 65.6% and 61.3%
- normalised viability ([10]; 10 nM): 81.1% and 87.6%
- normalised viability ([11]; 1 nM): 44.9% and 39.9%
- normalised viability ([12]; 1 nM): 80.8% and 75%
- normalised viability ([13]; 10 nM): 84.1% and 59.7%
- normalised viability ([14]; 10 nM): 42.7% and 48.8%
- normalised viability ([15]; 10 nM): 48.1% and 51.2%
- normalised viability ([16]; 10 nM): 86% and 80.2%
- normalised viability ([17]; 1 nM): 70.1% and 73.5%
- normalised viability ([18]; 10 nM): 60.5% and 63.5%
- normalised viability ([19]; 10 nM): 55.1% and 49%
- normalised viability ([20]; 1 nM): 65.8% and 59.4%
- normalised viability ([21]; 10 nM): 66.5% and 53.2%
- normalised viability ([22]; 10 nM): 55.3% and 43%
- normalised viability ([23]; 1 nM): 96.6% and 83.4%
- normalised viability ([24]; 1 nM): 71.8% and 59.9%
- drug sensitivity score [25]: 0
- drug sensitivity score [26]: 0
